Data: patent publication US8916183B2, “Pesticidal compositions and processes related thereto” (priority 2012, dated 2014)

System: Corn Earworm (CEW) (Helicoverpa zea)
Assay: Bioassay on corn earworm (CEW), 128-well diet tray assay
Assay type: in vivo
Settings: Helicoverpa zea; corn earworm, 50 μg/cm^2; read-out: % Mortality CEW 50 μg/cm^2
Method in brief: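 Activity was scored as percent larval mortality per well, averaged across eight wells and reported on a rating scale. Diet trays (128-well) were kept at 25° C with 14:10 light-dark for five to seven days.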
In the case of `CC(C)c1ccccc1N1/C(=N/N=C/c2ccc(-c3ncn(-c4ccc(OC(F)(F)F)cc4)n3)cc2)SCC1(C)O` (stereo not drawn) [Compound 242C], the mortality at 50 µg/cm2 is reported as 50 to 100%. `CCC(C)c1ccccc1N1/C(=N/N=C/c2ccc(-c3ncn(-c4ccc(OC(F)(F)F)cc4)n3)cc2)SCC1(C)O` (stereo not drawn) [Compound 243C] gave a mortality at 50 µg/cm2 of 50 to 100%. `Cc1cccc(Cl)c1N1/C(=N/N=C/c2ccc(-c3ncn(-c4ccc(OC(F)(F)F)cc4)n3)cc2)SCC1(C)O` (stereo not drawn) [Compound 244C] gave a mortality at 50 µg/cm2 of 50 to 100%. Compound `COc1ccc(N2/C(=N/N=C/c3ccc(-c4ncn(-c5ccc(OC(F)(F)F)cc5)n4)cc3)SCC2(C)O)c(C)c1` (stereo not drawn) [Compound 245C] has a mortality at 50 µg/cm2 of 50 to 100%. With `Cc1ccccc1N1/C(=N/N=C/c2ccc(-c3ncn(-c4ccc(OC(F)(F)F)cc4)n3)cc2)SCC1(C)O` (stereo not drawn) [Compound 248C] the mortality at 50 µg/cm2 was 50 to 100%. `CC(C)c1cccc(F)c1N1/C(=N/N=C/c2ccc(-c3ncn(-c4ccc(OC(F)(F)F)cc4)n3)cc2)SCC1(C)O` (stereo not drawn) [Compound 250C] gave a mortality at 50 µg/cm2 of 50 to 100%. `Cc1ccc(N2/C(=N/N=C/c3ccc(-c4ncn(-c5ccc(OC(F)(F)F)cc5)n4)cc3)SCC2(C)O)c(C(C)C)c1` (stereo not drawn) [Compound 251C] gave a mortality at 50 µg/cm2 of 50 to 100%. `Cc1ccc(C(C)C)c(N2/C(=N/N=C/c3ccc(-c4ncn(-c5ccc(OC(F)(F)F)cc5)n4)cc3)SCC2(C)O)c1` (stereo not drawn) [Compound 253C] showed a mortality at 50 µg/cm2 of 50 to 100%. Work on `CCc1ccccc1N1/C(=N/N=C/c2ccc(-c3ncn(-c4ccc(OC(F)(F)F)cc4)n3)cc2)SCC1(C)O` (stereo not drawn) [Compound 254C] yielded a mortality at 50 µg/cm2 of 50 to 100%. `COc1cc(C)c(N2/C(=N/N=C/c3ccc(-c4ncn(-c5ccc(OC(F)(F)F)cc5)n4)cc3)SCC2(C)O)c(C)c1` (stereo not drawn) [Compound 255C] showed a mortality at 50 µg/cm2 of 50 to 100%. With `CCCc1ccccc1N1/C(=N/N=C/c2ccc(-c3ncn(-c4ccc(OC(F)(F)F)cc4)n3)cc2)SCC1(C)O` (stereo not drawn) [Compound 256C] the mortality at 50 µg/cm2 was 50 to 100%. `CC(C)c1ccccc1N1/C(=N/N=C/c2ccc(-c3ncn(-c4ccc(OC(F)(F)F)cc4)n3)cc2)SC(C)C1(C)O` (stereo not drawn) [Compound 257C] gave a mortality at 50 µg/cm2 of 50 to 100%. Compound `CC(C)c1cc(F)c(F)cc1N1/C(=N/N=C/c2ccc(-c3ncn(-c4ccc(OC(F)(F)F)cc4)n3)cc2)SCC1(C)O` (stereo not drawn) [Compound 259C] has a mortality at 50 µg/cm2 of 50 to 100%. For `CC(C)c1ccccc1N1/C(=N/N=C/c2ccc(-c3ncn(-c4ccc(C(F)(C(F)(F)F)C(F)(F)F)cc4)n3)cc2)SCC1(C)O` (stereo not drawn) [Compound 260C], the mortality at 50 µg/cm2 was 50 to 100%. In the case of `CC(C)c1ccccc1N1/C(=N/N=C/c2ccc(-c3ncn(-c4ccc(C(F)(F)F)cc4)n3)cc2)SCC1(C)O` (stereo not drawn) [Compound 261C], the mortality at 50 µg/cm2 is reported as 50 to 100%. Compound `CC(C)c1ccccc1N1/C(=N/N=C/c2ccc(-c3ncn(-c4ccc(OC(F)(F)C(F)(F)F)cc4)n3)cc2)SCC1(C)O` (stereo not drawn) [Compound 262C] has a mortality at 50 µg/cm2 of 50 to 100%. For `CC(C)c1ccccc1N1/C(=N/N=C/c2ccc(-c3ncn(-c4ccc(OC(F)(F)F)cc4)n3)cc2)SCC1(O)c1ccccc1C(F)(F)F` (stereo not drawn) [Compound 263C], the mortality at 50 µg/cm2 was 50 to 100%.

System: Beet Armyworm (BAW) (Spodoptera exigua)
Assay: Bioassay on beet armyworm (BAW), 128-well diet tray assay
Assay type: in vivo
Settings: Spodoptera exigua; beet armyworm, 50 μg/cm^2; read-out: % Mortality BAW 50 μg/cm^2
With `CC(C)c1ccccc1N1/C(=N/N=C/c2ccc(-c3ncn(-c4ccc(OC(F)(F)F)cc4)n3)cc2)SCC1(C)O` (stereo not drawn) [Compound 242C] the mortality at 50 µg/cm2 was 50 to 100%. Compound `CCC(C)c1ccccc1N1/C(=N/N=C/c2ccc(-c3ncn(-c4ccc(OC(F)(F)F)cc4)n3)cc2)SCC1(C)O` (stereo not drawn) [Compound 243C] has a mortality at 50 µg/cm2 of 50 to 100%. `Cc1cccc(Cl)c1N1/C(=N/N=C/c2ccc(-c3ncn(-c4ccc(OC(F)(F)F)cc4)n3)cc2)SCC1(C)O` (stereo not drawn) [Compound 244C] showed a mortality at 50 µg/cm2 of 50 to 100%. In the case of `COc1ccc(N2/C(=N/N=C/c3ccc(-c4ncn(-c5ccc(OC(F)(F)F)cc5)n4)cc3)SCC2(C)O)c(C)c1` (stereo not drawn) [Compound 245C], the mortality at 50 µg/cm2 is reported as 50 to 100%. With `Cc1ccccc1N1/C(=N/N=C/c2ccc(-c3ncn(-c4ccc(OC(F)(F)F)cc4)n3)cc2)SCC1(C)O` (stereo not drawn) [Compound 248C] the mortality at 50 µg/cm2 was 50 to 100%. With `CC(C)c1cccc(F)c1N1/C(=N/N=C/c2ccc(-c3ncn(-c4ccc(OC(F)(F)F)cc4)n3)cc2)SCC1(C)O` (stereo not drawn) [Compound 250C] the mortality at 50 µg/cm2 was 50 to 100%. For `Cc1ccc(N2/C(=N/N=C/c3ccc(-c4ncn(-c5ccc(OC(F)(F)F)cc5)n4)cc3)SCC2(C)O)c(C(C)C)c1` (stereo not drawn) [Compound 251C], the mortality at 50 µg/cm2 was 50 to 100%. `Cc1ccc(C(C)C)c(N2/C(=N/N=C/c3ccc(-c4ncn(-c5ccc(OC(F)(F)F)cc5)n4)cc3)SCC2(C)O)c1` (stereo not drawn) [Compound 253C] gave a mortality at 50 µg/cm2 of 50 to 100%. In the case of `CCc1ccccc1N1/C(=N/N=C/c2ccc(-c3ncn(-c4ccc(OC(F)(F)F)cc4)n3)cc2)SCC1(C)O` (stereo not drawn) [Compound 254C], the mortality at 50 µg/cm2 is reported as 50 to 100%. For `COc1cc(C)c(N2/C(=N/N=C/c3ccc(-c4ncn(-c5ccc(OC(F)(F)F)cc5)n4)cc3)SCC2(C)O)c(C)c1` (stereo not drawn) [Compound 255C], the mortality at 50 µg/cm2 was 50 to 100%. Compound `CCCc1ccccc1N1/C(=N/N=C/c2ccc(-c3ncn(-c4ccc(OC(F)(F)F)cc4)n3)cc2)SCC1(C)O` (stereo not drawn) [Compound 256C] has a mortality at 50 µg/cm2 of 50 to 100%. Work on `CC(C)c1ccccc1N1/C(=N/N=C/c2ccc(-c3ncn(-c4ccc(OC(F)(F)F)cc4)n3)cc2)SC(C)C1(C)O` (stereo not drawn) [Compound 257C] yielded a mortality at 50 µg/cm2 of 50 to 100%. Compound `CC(C)c1cc(F)c(F)cc1N1/C(=N/N=C/c2ccc(-c3ncn(-c4ccc(OC(F)(F)F)cc4)n3)cc2)SCC1(C)O` (stereo not drawn) [Compound 259C] has a mortality at 50 µg/cm2 of 50 to 100%. `CC(C)c1ccccc1N1/C(=N/N=C/c2ccc(-c3ncn(-c4ccc(C(F)(C(F)(F)F)C(F)(F)F)cc4)n3)cc2)SCC1(C)O` (stereo not drawn) [Compound 260C] showed a mortality at 50 µg/cm2 of 50 to 100%. For `CC(C)c1ccccc1N1/C(=N/N=C/c2ccc(-c3ncn(-c4ccc(C(F)(F)F)cc4)n3)cc2)SCC1(C)O` (stereo not drawn) [Compound 261C], the mortality at 50 µg/cm2 was 50 to 100%. For `CC(C)c1ccccc1N1/C(=N/N=C/c2ccc(-c3ncn(-c4ccc(OC(F)(F)C(F)(F)F)cc4)n3)cc2)SCC1(C)O` (stereo not drawn) [Compound 262C], the mortality at 50 µg/cm2 was 50 to 100%. For `CC(C)c1ccccc1N1/C(=N/N=C/c2ccc(-c3ncn(-c4ccc(OC(F)(F)F)cc4)n3)cc2)SCC1(O)c1ccccc1C(F)(F)F` (stereo not drawn) [Compound 263C], the mortality at 50 µg/cm2 was 50 to 100%.

System: not given
Assay: not given
Settings: not given
In the case of `FC(F)(F)Oc1ccc(-n2cnc(-c3ccc(/C=N/NC(=S)Nc4ccccc4C4CCCC4)cc3)n2)cc1` [Compound I-35], the melting point is reported as 213 to 216 °C. `Cc1cccc(NC(=S)N/N=C/c2ccc(-c3ncn(-c4ccc(OC(F)(F)F)cc4)n3)cc2)c1C(C)C` [Compound I-43] gave a melting point of 219 to 222 °C. Compound `Cc1ccc(C(C)C)c(NC(=S)NN)c1` [Compound I-46] has a melting point of 167 to 169 °C. Compound `CC(C)c1cc(F)ccc1NC(=S)NN` [Compound I-50] has a melting point of 163 to 167 °C. `CC(C)c1cc(F)c(F)cc1NC(=S)NN` [Compound I-54] showed a melting point of 169 to 170 °C. `CC(C)c1cc(F)c(F)cc1NC(=S)N/N=C/c1ccc(-c2ncn(-c3ccc(OC(F)(F)F)cc3)n2)cc1` [Compound I-55] showed a melting point of 217 to 221 °C.

System: Green Peach Aphid (GPA) (Myzus persicae)
Assay: Bioassay on green peach aphid (GPA), foliar spray on cabbage seedlings
Assay type: in vivo
Settings: green peach aphid, 200 ppm, read-out: % Mortality GPA 200 ppm
Method in brief: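 Cabbage seedlings (2-3 true leaves), each infested a day earlier with 20-50 wingless adult and nymph GPA, were sprayed on both leaf sides to runoff, four pots per treatment. Corrected % control was calculated against solvent-check plants.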
Work on `CC(C)c1ccccc1N1/C(=N/N=C/c2ccc(-c3ncn(-c4ccc(OC(F)(F)F)cc4)n3)cc2)SCC1(C)O` (stereo not drawn) [Compound 242C] yielded a mortality at 200 ppm of 0 to 80%. For `CCC(C)c1ccccc1N1/C(=N/N=C/c2ccc(-c3ncn(-c4ccc(OC(F)(F)F)cc4)n3)cc2)SCC1(C)O` (stereo not drawn) [Compound 243C], the mortality at 200 ppm was 0 to 80%. In the case of `Cc1cccc(Cl)c1N1/C(=N/N=C/c2ccc(-c3ncn(-c4ccc(OC(F)(F)F)cc4)n3)cc2)SCC1(C)O` (stereo not drawn) [Compound 244C], the mortality at 200 ppm is reported as 0%. For `COc1ccc(N2/C(=N/N=C/c3ccc(-c4ncn(-c5ccc(OC(F)(F)F)cc5)n4)cc3)SCC2(C)O)c(C)c1` (stereo not drawn) [Compound 245C], the mortality at 200 ppm was 0 to 80%. `Cc1ccccc1N1/C(=N/N=C/c2ccc(-c3ncn(-c4ccc(OC(F)(F)F)cc4)n3)cc2)SCC1(C)O` (stereo not drawn) [Compound 248C] showed a mortality at 200 ppm of 0 to 80%. In the case of `CC(C)c1cccc(F)c1N1/C(=N/N=C/c2ccc(-c3ncn(-c4ccc(OC(F)(F)F)cc4)n3)cc2)SCC1(C)O` (stereo not drawn) [Compound 250C], the mortality at 200 ppm is reported as 0 to 80%. `Cc1ccc(N2/C(=N/N=C/c3ccc(-c4ncn(-c5ccc(OC(F)(F)F)cc5)n4)cc3)SCC2(C)O)c(C(C)C)c1` (stereo not drawn) [Compound 251C] showed a mortality at 200 ppm of 0 to 80%. Compound `Cc1ccc(C(C)C)c(N2/C(=N/N=C/c3ccc(-c4ncn(-c5ccc(OC(F)(F)F)cc5)n4)cc3)SCC2(C)O)c1` (stereo not drawn) [Compound 253C] has a mortality at 200 ppm of 0%. Work on `CCc1ccccc1N1/C(=N/N=C/c2ccc(-c3ncn(-c4ccc(OC(F)(F)F)cc4)n3)cc2)SCC1(C)O` (stereo not drawn) [Compound 254C] yielded a mortality at 200 ppm of 0 to 80%. Compound `COc1cc(C)c(N2/C(=N/N=C/c3ccc(-c4ncn(-c5ccc(OC(F)(F)F)cc5)n4)cc3)SCC2(C)O)c(C)c1` (stereo not drawn) [Compound 255C] has a mortality at 200 ppm of 0%. Compound `CCCc1ccccc1N1/C(=N/N=C/c2ccc(-c3ncn(-c4ccc(OC(F)(F)F)cc4)n3)cc2)SCC1(C)O` (stereo not drawn) [Compound 256C] has a mortality at 200 ppm of 0 to 80%. In the case of `CC(C)c1ccccc1N1/C(=N/N=C/c2ccc(-c3ncn(-c4ccc(OC(F)(F)F)cc4)n3)cc2)SC(C)C1(C)O` (stereo not drawn) [Compound 257C], the mortality at 200 ppm is reported as 0%. `CC(C)c1cc(F)c(F)cc1N1/C(=N/N=C/c2ccc(-c3ncn(-c4ccc(OC(F)(F)F)cc4)n3)cc2)SCC1(C)O` (stereo not drawn) [Compound 259C] showed a mortality at 200 ppm of 0%. `CC(C)c1ccccc1N1/C(=N/N=C/c2ccc(-c3ncn(-c4ccc(C(F)(C(F)(F)F)C(F)(F)F)cc4)n3)cc2)SCC1(C)O` (stereo not drawn) [Compound 260C] showed a mortality at 200 ppm of 0%. `CC(C)c1ccccc1N1/C(=N/N=C/c2ccc(-c3ncn(-c4ccc(C(F)(F)F)cc4)n3)cc2)SCC1(C)O` (stereo not drawn) [Compound 261C] showed a mortality at 200 ppm of 0%. In the case of `CC(C)c1ccccc1N1/C(=N/N=C/c2ccc(-c3ncn(-c4ccc(OC(F)(F)C(F)(F)F)cc4)n3)cc2)SCC1(C)O` (stereo not drawn) [Compound 262C], the mortality at 200 ppm is reported as 0 to 80%. `CC(C)c1ccccc1N1/C(=N/N=C/c2ccc(-c3ncn(-c4ccc(OC(F)(F)F)cc4)n3)cc2)SCC1(O)c1ccccc1C(F)(F)F` (stereo not drawn) [Compound 263C] showed a mortality at 200 ppm of 0 to 80%.
